Data set [1] in a line: OH-radical-dependent degradation of haeme group (Soret band at 408 nm), Cu/ascorbate Fenton reaction. It is filed as biochemical, Bovine. Particulars: for inhibition of heme degradation: aqueous assay; for inhibition of heme degradation compared to control: dissolved in DMF. The text has this:
A suitable assay is the inhibition of the OH-radical-dependent degradation of the heme system of heme proteins. The […] of the Soret band of the heme group can be conveniently quantified in the 350-450 nm region. An alternative assay used was the depolymerisation of hyaluronic acid by OH-radicals The progressive depolymerisation of this mucopolysaccharide was followed viscosimetrically and should be inhibited accordingly in the presence of the prazoles. Bovine erythrocytes were haemolysed and diluted with water to give an electronic absorption at 408 nm of 1.0. The assay was performed analogous to that of the myeloperoxidase enzymatic activity test where hypochlorite is produced which is known to degrade the heme group of heme proteins. To 574 μl of aqueous haeme solution in a thermostatted cuvette 6 μl of DMF or water and 10 μl of […] aqueous copper sulphate were added for 5 minutes. The reaction was started after the addition of 10 μl 50 μM ascorbic acid and the absorption followed at 37° C. for two minutes in the control experiment. Depending on the solubility the respective inhibitor was added in a volume of 6 μl in DMF or water. The total volume was 600 μl.

The nature of data set [2]: depolymerisation of hyaluronic acid by OH-radicals, viscosimetric. Type of data set: biochemical. The source says:
A suitable assay is the inhibition of the OH-radical-dependent degradation of the heme system of heme proteins. The […] of the Soret band of the heme group can be conveniently quantified in the 350-450 nm region. An alternative assay used was the depolymerisation of hyaluronic acid by OH-radicals The progressive depolymerisation of this mucopolysaccharide was followed viscosimetrically and should be inhibited accordingly in the presence of the prazoles. Depolymerisation of hyaluronic acid was measured in terms of viscosity change with time. Potassium hyaluronate was purchased from Sigma-Aldrich Chemie, Steinheim, Germany. All operations were performed at room temperature (22° C.). Relative viscosity was monitored by recording the time (seconds) required for a given volume (0.8 ml) of the reaction mixture to drain by gravity from the barrel of a plastic 1 ml syringe through a needle of appropriate size. The meniscus was timed as it passed between two calibration marks on the syringe barrel. […] The reaction was started with 30 μl of 50 mM ascorbic acid in presence of 10 mM phosphate buffer pH 7.2 and incubated for 5 minutes. […] When the water-soluble sodium salt of pantoprazole was examined only 2.5 μl 10 mM copper sulphate and 5 μl 50 mM ascorbic acid were needed to yield an appropriate depolymerization effect.

Data set [3] can be described thus: superoxide radical scavenging system (superoxide dismutase assay using nitro tetrazolium chloride). It is filed as biochemical. As to the method: In order to examine a possible reactivity of the substituted benzimidazoles with superoxide a standard superoxide dismutase assay using nitro tetrazolium chloride was employed. Scavengeing of hydroxyl radicals was measured by three different established methods.

The nature of data set [4]: thiobarbituric acid assay (2-desoxy-D-ribose decomposition, Fe(II) Fenton reaction). Particulars: concentration dependent. Type of data set: biochemical. The source says:
In a third completely different method OH-radicals generated during a Fenton reaction decomposed 2-desoxy-D-ribose. This reaction was monitored by measuring the formation of malondialdehyde-like compounds known to yield coloured thiobarbituric acid adducts which were eventually recorded at 532 nm. […] This was attributed to the extraordinary stability of this compound surviving a hydroxyl radical burst A crucial question was the survival of these benzimidazoles during Fenton-type reactions. These stability measurements were conducted employing HPLC analysis allowing the detection of remaining intact primary compounds. The thiobarbituric acid assay was performed according to the method described earlier [10]300 μl 7.5 mM 2-desoxy-D-ribose were added to 1000 μl 10 mM potassium-phosphate buffer, pH 7.4 and incubated for 30 min. at 37° C. in the presence of 100 μl inhibitor compound and 100 μl 10 mM iron(II)ammonium sulphate. The total volume was 1.5 ml. The reaction was stopped by the addition of 1 ml 1% (w/v) thiobarbituric acid dissolved in 50 mM NaOH and 1 ml of 2.8% (w/v) trichloro acetic acid and maintained for 15 min at 95° C. The control reaction mixture contained the same volume of DMFas was present in the inhibitor compound. The dye was measured at 532 nm.

The nature of data set [5]: stability under conditions of the Fenton reaction, HPLC analysis. It is filed as physicochemical. Particulars: 90 min of incubation, n=3. The source says:
In a third completely different method OH-radicals generated during a Fenton reaction decomposed 2-desoxy-D-ribose. This reaction was monitored by measuring the formation of malondialdehyde-like compounds known to yield coloured thiobarbituric acid adducts which were eventually recorded at 532 nm. […] This was attributed to the extraordinary stability of this compound surviving a hydroxyl radical burst A crucial question was the survival of these benzimidazoles during Fenton-type reactions. These stability measurements were conducted employing HPLC analysis allowing the detection of remaining intact primary compounds. A 200 μl aliquot of the incubation mixture was analysed by HPLC using the analytical column Nucleosil C 8, 5 μm (125×4.6 mm, Fa. Grom, Herrenberg, Germany) and the precolumn was LiCHROPREP RP-2 (12×4 mm, Fa. Merck, Darmstadt, Germany) in a reverse phase. A gradient of acetonitrile (10-45% (v/v)) and 10 mM phosphate buffer, pH 7.4, at a flow rate of 1 ml min-1 was used as effluent on the analytical column.

Data set [6] in a line: scavenging of hydroxyl radicals generated during a Fenton reaction (three assays). It is filed as biochemical. As to the method:
Bovine erythrocytes were haemolysed and diluted with water to give an electronic absorption at 408 nm of 1.0. The assay was performed analogous to that of the myeloperoxidase enzymatic activity test where hypochlorite is produced which is known to degrade the heme group of heme proteins. To 574 μl of aqueous haeme solution in a thermostatted cuvette 6 μl of DMF or water and 10 μl of […] aqueous copper sulphate were added for 5 minutes. The reaction was started after the addition of 10 μl 50 μM ascorbic acid and the absorption followed at 37° C. for two minutes in the control experiment. Depending on the solubility the respective inhibitor was added in a volume of 6 μl in DMF or water. The total volume was 600 μl. Depolymerisation of hyaluronic acid was measured in terms of viscosity change with time. Potassium hyaluronate was purchased from Sigma-Aldrich Chemie, Steinheim, Germany. All operations were performed at room temperature (22° C.). Relative viscosity was monitored by recording the time (seconds) required for a given volume (0.8 ml) of the reaction mixture to drain by gravity from the barrel of a plastic 1 ml syringe through a needle of appropriate size. The meniscus was timed as it passed between two calibration marks on the syringe barrel. […] The dye was measured at 532 nm.

For data set [7] the following is noted: after oral administration; read-out: maximal concentration (Cmax) in plasma; cited from earlier work.

Here are results for two compounds from US20070027189A1, “Use of known active ingredients as radical scavengers” (Altana Pharma AG, priority 2003, published 2007).

In the case of `COc1ccnc(C[S+]([O-])c2nc3ccc(OC(F)F)cc3[nH]2)c1OC` (centres unmarked) [pantoprazole sodium], the “inhibition of heme degradation” value in data set [1] (25 μM) is “distinct inhibition”; in data set [1] (50 μM) it was 34%; in data set [1] (100 μM) it was 74%. The “inhibition of hyaluronic acid depolymerisation” value in data set [2] (12 μM, fully aqueous assay) came to 46%. Moreover, the biopolymer protected in data set [2] (20 μM, fully aqueous assay) is listed as 90%.
Consider `COc1ccnc(C[S+]([O-])c2nc3ccc(OC(F)F)cc3[nH]2)c1OC` (centres unmarked) [pantoprazole, 5-difluoromethoxy-2-[(3,4-dimethoxy-2-pyridinyl)methylsulphinyl]-1H-benzimidazole], for which the “reactivity in the superoxide radical scavenging system” value in data set [3] was “did not display detectable reactivity”. The “inhibition of heme degradation compared to control” value in data set [1] (50 μM) came to 36%; in data set [1] (100 μM), 75%. This compound also returned a mucopolysaccharide degradation in data set [2] (80 μM dissolved in DMF, within 20 min) of 48%. Moreover, the “inhibition of hyaluronic acid depolymerisation” value in data set [2] (160 μM dissolved in DMF) is “nearly complete inhibition”. For the same compound, in data set [4], the “inhibitory effect on OH-radical decomposition of desoxyribose” value is recorded as “inhibitory effect was clearly seen”. In addition, the “decrease of intact compound after OH-radical exposure” value in data set [5] amounted to 15%. Moreover, the “scavenging of hydroxyl radicals” value in data set [6] was “pronounced inhibitory reactivity”. Further, the Cmax in data set [7] was 5 to 10 µM.
